In ChEMBL document CHEMBL1201862, “PubChem BioAssay data set” (2004):
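Cultured in 96-well plates, cells were exposed to test compound for 48 hours across five concentrations. At the GI50, growth is halved.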 Calls of active or inactive are those of the source. Rule as the data show it: active = GI50 up to about 1.1 µM and inactive = higher.

Assays:
Experiment in all cases: growth of human tumour cells (NCI), 48 h
COLO 205 = tested on: COLO 205
DU-145 = tested on: DU-145
EKVX = tested on: EKVX
HL-60 = tested on: HL-60
KM12 = tested on: KM12
M14 = tested on: M14
MCF7 = tested on: MCF7
NCI-H226 = tested on: NCI-H226
NCI-H460 = tested on: NCI-H460
OVCAR-3 = tested on: OVCAR-3
OVCAR-4 = tested on: OVCAR-4
OVCAR-5 = tested on: OVCAR-5
PC-3 = tested on: PC-3
SK-MEL-5 = tested on: SK-MEL-5
SW-620 = tested on: SW-620
HCC 2998 = tested on: HCC 2998
SK-MEL-2 = tested on: SK-MEL-2
Malme-3M = tested on: Malme-3M
SR = tested on: SR

Row | SMILES | GI50 (COLO 205) | GI50 (DU-145) | GI50 (EKVX) | GI50 (HL-60) | GI50 (KM12) | GI50 (M14) | GI50 (MCF7) | GI50 (NCI-H226) | GI50 (NCI-H460) | GI50 (OVCAR-3) | GI50 (OVCAR-4) | GI50 (OVCAR-5) | GI50 (PC-3) | GI50 (SK-MEL-5) | GI50 (SW-620) | GI50 (HCC 2998) | GI50 (SK-MEL-2) | GI50 (Malme-3M) | GI50 (SR)
1 | O=c1c2ccccc2nc(-c2ccc(Cl)cc2)n1O | 34.6 µM (inactive) | 89.9 µM (inactive) | 21.7 µM (inactive) | 18.3 µM (inactive) | 9.53 µM (inactive) | 26.4 µM (inactive) | 20 µM (inactive) | 15.5 µM (inactive) | 11.1 µM (inactive) | 40.2 µM (inactive) | 37 µM (inactive) | 47.4 µM (inactive) | 33.9 µM (inactive) | 29.9 µM (inactive) | 33.7 µM (inactive) |  |  |  | 
2 | NC(=O)C(=Cn1c(=S)[nH]c2ccc([N+](=O)[O-])cc21)C(N)=O | > 100 µM (inactive) | > 100 µM (inactive) | 19.7 µM (inactive) | > 100 µM (inactive) | > 100 µM (inactive) | > 100 µM (inactive) |  | 28.8 µM (inactive) | > 100 µM (inactive) | > 100 µM (inactive) | > 100 µM (inactive) | > 100 µM (inactive) |  | > 100 µM (inactive) | > 100 µM (inactive) | > 100 µM (inactive) | > 100 µM (inactive) |  | 
3 | N[C@@H](CCC(=O)NC(Cc1ccccc1)C(=O)NCP(=O)(O)O)C(=O)O (some centres undefined) | > 100 µM (inactive) |  | > 100 µM (inactive) | > 100 µM (inactive) | > 100 µM (inactive) |  | > 100 µM (inactive) |  | > 100 µM (inactive) | > 100 µM (inactive) |  | > 100 µM (inactive) | > 100 µM (inactive) | > 100 µM (inactive) | > 100 µM (inactive) | > 100 µM (inactive) | > 100 µM (inactive) | > 100 µM (inactive) | > 100 µM (inactive)
4 | C/C=C\C(CC(=O)OC)CC(=O)N(CCC1CN(S(=O)(=O)C(F)(F)F)c2ccccc21)Cc1ccc(OC)cc1OC (centres undefined) | > 100 µM (inactive) |  | > 100 µM (inactive) |  | 45.1 µM (inactive) | > 100 µM (inactive) | > 100 µM (inactive) | > 100 µM (inactive) | 73.1 µM (inactive) | > 100 µM (inactive) | 54.7 µM (inactive) | > 100 µM (inactive) | 63 µM (inactive) | > 100 µM (inactive) | > 100 µM (inactive) | > 100 µM (inactive) | > 100 µM (inactive) | > 100 µM (inactive) | 
5 | N/C(COc1ccc(Cl)cc1)=N\NC(=O)c1ccncc1 | > 100 µM (inactive) | > 100 µM (inactive) | 76.2 µM (inactive) | > 100 µM (inactive) | > 100 µM (inactive) | > 100 µM (inactive) | > 100 µM (inactive) |  | 63.5 µM (inactive) | > 100 µM (inactive) | > 100 µM (inactive) | > 100 µM (inactive) | > 100 µM (inactive) |  | > 100 µM (inactive) | > 100 µM (inactive) | > 100 µM (inactive) | > 100 µM (inactive) | 
6 | CCOC(=O)Nc1cc2c(c(N)n1)N=C(c1ccc(OC)cc1)CN2 | 0.00986 µM (active) | 0.000407 µM (active) | 0.00104 µM (active) | 0.0015 µM (active) | 0.000446 µM (active) | 0.000309 µM (active) | 0.00434 µM (active) | 0.368 µM (active) | 0.00226 µM (active) | 0.00044 µM (active) | 0.757 µM (active) | 0.0158 µM (active) |  | < 0.0001 µM (active) | < 0.0001 µM (active) | 0.000925 µM (active) | < 0.01 µM (active) | 0.0101 µM (active) | < 0.0001 µM (active)
7 | COCC(O)Cn1ccnc1[N+](=O)[O-] (centres undefined) [MISONIDAZOLE] | > 100 µM (inactive) |  | > 100 µM (inactive) | > 100 µM (inactive) | > 100 µM (inactive) | > 100 µM (inactive) |  | > 100 µM (inactive) | > 100 µM (inactive) | > 100 µM (inactive) |  | > 100 µM (inactive) |  |  | > 100 µM (inactive) | > 100 µM (inactive) | > 100 µM (inactive) | > 100 µM (inactive) | > 100 µM (inactive)
